Test results reported in patent US20210045385A1, “PYRIDAZINONE-SUBSTITUTED KETOXIMES AS HERBICIDES” (FMC Corporation, priority 2018, published 2021).

Legend:
Type in all cases: in vivo
[1] = system: Italian ryegrass (Lolium multiflorum); test: Test A preemergence, visual plant response rating; settings: for Ryegrass, Italian plant response rating: 125 g ai/ha, preemergence, 0 to 100 scale, 0 no effect, 100 complete control; for Ryegrass, Italian plant response rating (0 to 100 scale): 500 g ai/ha Preemergence, approx. 10 days
How it was run: (§1)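 Compared with untreated controls, treated plants received a visual injury score on a 0–100 scale around 10 days after application. The compound, in a non-phytotoxic solvent with surfactant, was given as a preemergence soil spray or postemergence at the one- to two-leaf stage.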

[2] = system: barnyardgrass (Echinochloa crus-galli); test: Test A preemergence, visual plant response rating; settings: for Barnyardgrass plant response rating: 125 g ai/ha, preemergence, 0 to 100 scale, 0 no effect, 100 complete control; for Barnyardgrass plant response rating (0 to 100 scale): 500 g ai/ha Preemergence, approx. 10 days
How it was run: as §1

[3] = system: foxtail, giant (giant foxtail, Setaria faberii); test: Test A preemergence, visual plant response rating; settings: for Foxtail, Giant plant response rating: 125 g ai/ha, preemergence, 0 to 100 scale, 0 no effect, 100 complete control; for Foxtail, Giant plant response rating (0 to 100 scale): 500 g ai/ha Preemergence, approx. 10 days
How it was run: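 Greenhouse pot test in loam–sand soil mix: compound in a surfactant-containing non-phytotoxic solvent applied preemergence (directed soil spray) or postemergence (one- to two-leaf plants, 2–10 cm). Injury scored visually after ~10 days, 0–100.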

[4] = system: kochia (Kochia scoparia); test: Test A preemergence, visual plant response rating; settings: for Kochia plant response rating: 125 g ai/ha, preemergence, 0 to 100 scale, 0 no effect, 100 complete control; for Kochia plant response rating (0 to 100 scale): 500 g ai/ha Preemergence, approx. 10 days
How it was run: as §1

[5] = system: pigweed (Amaranthus retroflexus); test: Test A preemergence, visual plant response rating; settings: for Pigweed plant response rating: 125 g ai/ha, preemergence, 0 to 100 scale, 0 no effect, 100 complete control; for Pigweed plant response rating (0 to 100 scale): 500 g ai/ha Preemergence, approx. 10 days
How it was run: as §1

[6] = system: ragweed (common ragweed, Ambrosia elatior); test: Test A preemergence, visual plant response rating; settings: for Ragweed plant response rating: 125 g ai/ha, preemergence, 0 to 100 scale, 0 no effect, 100 complete control; for Ragweed plant response rating (0 to 100 scale): 500 g ai/ha Preemergence, approx. 10 days
How it was run: as §1

[7] = system: Italian ryegrass (Lolium multiflorum); test: Test A postemergence, visual plant response rating; settings: for Ryegrass, Italian plant response rating (0 to 100 scale): 500 g ai/ha, postemergence, 0 is no effect, 100 is complete control; for Ryegrass, Italian plant response rating: Postemergence, 125 g ai/ha, 0 to 100 scale (0 no effect, 100 complete control)
How it was run: as §1

[8] = system: barnyardgrass (Echinochloa crus-galli); test: Test A postemergence, visual plant response rating; settings: for Barnyardgrass plant response rating (0 to 100 scale): 500 g ai/ha, postemergence, 0 is no effect, 100 is complete control; for Barnyardgrass plant response rating: Postemergence, 125 g ai/ha, 0 to 100 scale (0 no effect, 100 complete control)
How it was run: as §1

[9] = system: blackgrass (Alopecurus myosuroides); test: Test A postemergence, visual plant response rating; settings: for Blackgrass plant response rating (0 to 100 scale): 500 g ai/ha, postemergence, 0 is no effect, 100 is complete control; for Blackgrass plant response rating: Postemergence, 125 g ai/ha, 0 to 100 scale (0 no effect, 100 complete control)
How it was run: as §1

[10] = system: corn (Zea mays); test: Test A postemergence, visual plant response rating; settings: for Corn plant response rating (0 to 100 scale): 500 g ai/ha, postemergence, 0 is no effect, 100 is complete control; for Corn plant response rating: Postemergence, 125 g ai/ha, 0 to 100 scale (0 no effect, 100 complete control)
How it was run: as §1

[11] = system: foxtail, giant (giant foxtail, Setaria faberii); test: Test A postemergence, visual plant response rating; settings: for Foxtail, Giant plant response rating (0 to 100 scale): 500 g ai/ha, postemergence, 0 is no effect, 100 is complete control; for Foxtail, Giant plant response rating: Postemergence, 125 g ai/ha, 0 to 100 scale (0 no effect, 100 complete control)
How it was run: as §1

[12] = system: galium (catchweed bedstraw, Galium aparine); test: Test A postemergence, visual plant response rating; settings: for Galium plant response rating (0 to 100 scale): 500 g ai/ha, postemergence, 0 is no effect, 100 is complete control; for Galium plant response rating: Postemergence, 125 g ai/ha, 0 to 100 scale (0 no effect, 100 complete control)
How it was run: as §1

[13] = system: kochia (Kochia scoparia); test: Test A postemergence, visual plant response rating; settings: for Kochia plant response rating (0 to 100 scale): 500 g ai/ha, postemergence, 0 is no effect, 100 is complete control; for Kochia plant response rating: Postemergence, 125 g ai/ha, 0 to 100 scale (0 no effect, 100 complete control)
How it was run: as §1

[14] = system: pigweed (Amaranthus retroflexus); test: Test A postemergence, visual plant response rating; settings: for Pigweed plant response rating (0 to 100 scale): 500 g ai/ha, postemergence, 0 is no effect, 100 is complete control; for Pigweed plant response rating: Postemergence, 125 g ai/ha, 0 to 100 scale (0 no effect, 100 complete control)
How it was run: as §1

[15] = system: ragweed (common ragweed, Ambrosia elatior); test: Test A postemergence, visual plant response rating; settings: for Ragweed plant response rating (0 to 100 scale): 500 g ai/ha, postemergence, 0 is no effect, 100 is complete control; for Ragweed plant response rating: Postemergence, 125 g ai/ha, 0 to 100 scale (0 no effect, 100 complete control)
How it was run: as §1

[16] = system: wheat (Triticum aestivum); test: Test A postemergence, visual plant response rating; settings: for Wheat plant response rating (0 to 100 scale): 500 g ai/ha, postemergence, 0 is no effect, 100 is complete control; for Wheat plant response rating: Postemergence, 125 g ai/ha, 0 to 100 scale (0 no effect, 100 complete control)
How it was run: as §1

[17] = system: barnyardgrass (Echinochloa crus-galli); test: Test B flooded paddy test, visual plant response rating; settings: 250 g ai/ha, Flood, applied to paddy water, 2-leaf stage, evaluated after 13 to 15 days
How it was run: (§2)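 Visual scores compare treated plants with controls after 13 to 15 days of greenhouse growth. Treatment was made into paddy water standing 3 cm above the soil, with plants at the 2-leaf stage and flooding maintained throughout.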

[18] = system: ducksalad (Heteranhera limosa); test: as above; settings: 250 g ai/ha, Flood, applied to paddy water, 2-leaf stage, evaluated after 13 to 15 days
How it was run: as §2

[19] = system: rice (Oryza sativa); test: as above; settings: 250 g ai/ha, Flood, applied to paddy water, 2-leaf stage, evaluated after 13 to 15 days
How it was run: as §2

[20] = system: sedge, umbrella (small-flower umbrella sedge, Cyperus difformis); test: as above; settings: 250 g ai/ha, Flood, applied to paddy water, 2-leaf stage, evaluated after 13 to 15 days
How it was run: as §2

Compound | Ryegrass, Italian plant response rating (0 to 100 scale) [1] | Barnyardgrass plant response rating [2] | Barnyardgrass plant response rating (0 to 100 scale) [2] | Foxtail, Giant plant response rating [3] | Foxtail, Giant plant response rating (0 to 100 scale) [3] | Kochia plant response rating [4] | Kochia plant response rating (0 to 100 scale) [4] | Pigweed plant response rating [5] | Pigweed plant response rating (0 to 100 scale) [5] | Ragweed plant response rating [6] | Ragweed plant response rating (0 to 100 scale) [6] | Ryegrass, Italian plant response rating (0 to 100 scale) [7] | Ryegrass, Italian plant response rating [7] | Barnyardgrass plant response rating (0 to 100 scale) [8] | Barnyardgrass plant response rating [8] | Blackgrass plant response rating (0 to 100 scale) [9] | Blackgrass plant response rating [9] | Corn plant response rating (0 to 100 scale) [10] | Corn plant response rating [10] | Foxtail, Giant plant response rating (0 to 100 scale) [11] | also measured
CON=C(c1c(O)c(C)nn(C)c1=O)c1cccc2ccc(Cl)cc12 [Compound 110] | 70 | 70 | 80 | 60 | 100 | 0 | 10 | 50 | 100 | 40 | 90 | 80 | 30 | 70 | 50 | 90 | 90 | 30 | 10 | 90 | Ryegrass, Italian plant response rating [1]: 60; Foxtail, Giant plant response rating [11]: 50; Galium plant response rating (0 to 100 scale) [12]: 100; Galium plant response rating [12]: 90; Kochia plant response rating (0 to 100 scale) [13]: 60; Kochia plant response rating [13]: 50; Pigweed plant response rating (0 to 100 scale) [14]: 100; Pigweed plant response rating [14]: 90; Ragweed plant response rating (0 to 100 scale) [15]: 90; Ragweed plant response rating [15]: 60; Wheat plant response rating (0 to 100 scale) [16]: 0; Wheat plant response rating [16]: 0; Plant response rating, Barnyardgrass (0 to 100 scale, 0 is no effect, 100 is complete control) [17]: 0; Plant response rating, Ducksalad (0 to 100 scale, 0 is no effect, 100 is complete control) [18]: 0; Plant response rating, Rice (0 to 100 scale, 0 is no effect, 100 is complete control) [19]: 0; Plant response rating, Sedge, Umbrella (0 to 100 scale, 0 is no effect, 100 is complete control) [20]: 0
CO/N=C(/c1c(O)c(C)nn(C)c1=O)c1ccc(F)c2ccccc12 [Compound 75] | 100 | 30 | 90 | 70 | 100 | 10 | 90 | 60 | 90 | 80 | 100 | 100 | 90 | 70 | 20 | 100 | 90 | 20 | 10 | 80 | Ryegrass, Italian plant response rating [1]: 100; Foxtail, Giant plant response rating [11]: 50; Galium plant response rating (0 to 100 scale) [12]: 100; Galium plant response rating [12]: 100; Kochia plant response rating (0 to 100 scale) [13]: 90; Kochia plant response rating [13]: 70; Pigweed plant response rating (0 to 100 scale) [14]: 90; Pigweed plant response rating [14]: 70; Ragweed plant response rating (0 to 100 scale) [15]: 100; Ragweed plant response rating [15]: 90; Wheat plant response rating (0 to 100 scale) [16]: 80; Wheat plant response rating [16]: 60; Plant response rating, Barnyardgrass (0 to 100 scale, 0 is no effect, 100 is complete control) [17]: 0; Plant response rating, Ducksalad (0 to 100 scale, 0 is no effect, 100 is complete control) [18]: 0; Plant response rating, Rice (0 to 100 scale, 0 is no effect, 100 is complete control) [19]: 0; Plant response rating, Sedge, Umbrella (0 to 100 scale, 0 is no effect, 100 is complete control) [20]: 0
CON=C(c1cccc(C2CC2)c1)c1c(O)c(C)nn(C)c1=O [Compound 123] | 90 | 0 | 50 | 10 | 40 | 10 | 50 | 40 | 60 | 50 | 80 | 80 | 60 | 40 | 0 | 30 | 20 | 0 | 0 | 60 | Foxtail, Giant plant response rating [11]: 20; Galium plant response rating (0 to 100 scale) [12]: 80; Galium plant response rating [12]: 70; Kochia plant response rating (0 to 100 scale) [13]: 70; Kochia plant response rating [13]: 50; Pigweed plant response rating (0 to 100 scale) [14]: 80; Pigweed plant response rating [14]: 70; Ragweed plant response rating (0 to 100 scale) [15]: 90; Ragweed plant response rating [15]: 80; Wheat plant response rating (0 to 100 scale) [16]: 10; Wheat plant response rating [16]: 0; Plant response rating, Barnyardgrass (0 to 100 scale, 0 is no effect, 100 is complete control) [17]: 0; Plant response rating, Ducksalad (0 to 100 scale, 0 is no effect, 100 is complete control) [18]: 0; Plant response rating, Rice (0 to 100 scale, 0 is no effect, 100 is complete control) [19]: 0; Plant response rating, Sedge, Umbrella (0 to 100 scale, 0 is no effect, 100 is complete control) [20]: 0
